The supplement of paper PMC10307832

Experiments:
Assay in all cases: relative viability (nuclei count vs DMSO), 5 days (fraction); higher = more cells survive
TPCA-1 + Navitoclax = compound: C1=CC(=CC=C1C2=CC(=C(S2)NC(=O)N)C(=O)N)F [TPCA-1] + CC1(C)CCC(c2ccc(Cl)cc2)=C(CN2CCN(c3ccc(C(=O)NS(=O)(=O)c4ccc(N[C@H](CCN5CCOCC5)CSc5ccccc5)c(S(=O)(=O)C(F)(F)F)c4)cc3)CC2)C1 [Navitoclax] (partner 0.5 µM)
Summary of the method: (§1)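 One day after seeding in 1536-well plates, lung cancer cell lines were dosed by pin tool. Dosing was either single-drug or a fixed anchor-drug dose plus five library-drug doses (not always all listed) in √10 steps. After 5 days, nuclei were stained in one fix-and-stain step and counted on 4× images, and relative viability is the nuclei count of treated wells over that of vehicle wells, given as the median of duplicate plates.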

TPCA-1 + Pictilisib = compound: C1=CC(=CC=C1C2=CC(=C(S2)NC(=O)N)C(=O)N)F [TPCA-1] + CS(=O)(=O)N1CCN(Cc2cc3nc(-c4cccc5[nH]ncc45)nc(N4CCOCC4)c3s2)CC1 [Pictilisib] (partner 1 µM)
Summary of the method: as §1

[1] = compound: C[C@]12O[C@H](C[C@]1(O)CO)n1c3ccccc3c3c4c(c5c6ccccc6n2c5c31)CNC4=O [Lestaurtinib] + CC(=O)c1c(C)c2cnc(Nc3ccc(N4CCNCC4)cn3)nc2n(C2CCCC2)c1=O [Palbociclib] (partner 0.5 µM)
Summary of the method: as §1

[2] = compound: C[C@]12O[C@H](C[C@]1(O)CO)n1c3ccccc3c3c4c(c5c6ccccc6n2c5c31)CNC4=O [Lestaurtinib] + C[C@]1(O)C[C@@H](c2nc(-c3ccc4ccc(-c5ccccc5)nc4c3)c3c(N)nccn32)C1 [Linsitinib] (partner 1 µM)
Summary of the method: as §1

Cell Line: UMC-11
- relative viability (TPCA-1 + Navitoclax; first compound 0.04 µM): 0.354
- relative viability (TPCA-1 + Navitoclax; first compound 0.1265 µM): 0.335
- relative viability (TPCA-1 + Navitoclax; first compound 0.4 µM): 0.394
- relative viability (TPCA-1 + Navitoclax; first compound 1.265 µM): 0.415
- relative viability (TPCA-1 + Navitoclax; first compound 4 µM): 0.253
- relative viability (TPCA-1 + Pictilisib; first compound 0.04 µM): 0.781
- relative viability (TPCA-1 + Pictilisib; first compound 0.1265 µM): 0.685
- relative viability (TPCA-1 + Pictilisib; first compound 0.4 µM): 0.881
- relative viability (TPCA-1 + Pictilisib; first compound 1.265 µM): 0.735
- relative viability (TPCA-1 + Pictilisib; first compound 4 µM): 0.127
- relative viability ([1]; first compound 0.005 µM): 0.344
- relative viability ([1]; first compound 0.01581 µM): 0.294
- relative viability ([1]; first compound 0.05 µM): 0.33
- relative viability ([1]; first compound 0.1581 µM): 0.215
- relative viability ([1]; first compound 0.5 µM): 0.198
- relative viability ([2]; first compound 0.005 µM): 1.08
- relative viability ([2]; first compound 0.01581 µM): 1.06
- relative viability ([2]; first compound 0.05 µM): 0.575
- relative viability ([2]; first compound 0.1581 µM): 0.339
- relative viability ([2]; first compound 0.5 µM): 0.175
